Assay results: patent US11167015B2, “Arginine and its use as a T cell modulator” (INSTITUTE FOR RESEARCH IN BIOMEDICINE, priority 2016, dated 2021)

Legend:
human naïve CD4+ T cells [1] = test: T cell proliferation (CellTrace Violet dilution); assay type: cell-based
Procedure: FIG. 10. […] (A) Kinetics of T cell proliferation. Human naïve CD4+ T cells were labeled with CellTraceViolet (CTV) and activated in Ctrl medium or in L-Arg medium or in medium supplemented with 3 mM D-arginine or 3 mM L-arginine together with 3 mM L-lysine. Cell divisions were monitored at 48 h and 72 h by flow cytometry. (B) CTV-labeled CD4+ T cells were activated in normal medium or L-Arg medium and the dilution of CTV was measured over time by flow cytometry. n=5 from two donors. (C) 3H-L-arginine uptake by 3 day-activated CD4+ T cells during a 15 minutes pulse. Where indicated, 3 mM L-arginine, D-arginine or L-lysine was added to the culture medium as a competitive uptake inhibitor. n=7 for control, n=9 for L-Arg, n=5 for D-Arg, and n=9 for L-Lys. Bars represent the s.e.m.

activated CD8+ T cells = test: IL-2 withdrawal assay and assessment of cell viability, CD8+ T cells; assay type: cell-based, human; details: L-arginine supplementation, 5 days after IL-2 withdrawal
human naïve CD4+ T cells [2] = test: Nitric oxide formation measured using DAF-FM diacetate; assay type: cell-based; details: L-arginine-supplemented medium vs normal medium
Procedure: FIG. 9. Impact of L-citrulline on metabolism, Related to FIG. 3. (A) Human naïve CD4^+ T cells were activated in normal medium or in L-Arg medium. Nitric oxide formation was measured using DAF-FM diacetate at different time points. (B) T cells were activated in control medium (Ctrl, containing 1 mM L-arginine), or in medium supplemented with 3 mM L-arginine (L-Arg) or 3 mM L-citrulline (L-Cit) and harvested at different time points. […] Shown are only metabolites with a log 2 fold change >1 and an adjusted p value of <0.05. n=6 from one donor. Log 2 fold change between 0 and >+2 for L-Orn, L-Arg and L-Cit exemplarily indicated as “high”.

human naïve CD4+ T cells [3] = test: CCR7 expression by flow cytometry; assay type: cell-based; details: day 10 after activation, L-arginine supplemented vs control cultures
Procedure: FIG. 4. L-arginine limits human T cell differentiation and endows cells with a high survival capacity in vitro. (A, B) Human naïve CD4^+ T cells were activated in L-Arg medium or Ctrl medium in the presence of 10 ng/ml IL-12. IFN-γ was quantified in culture supernatants after 5 days (A) or after re-activation for 5 h with PMA/Ionomycin (B); n=9 from three donors. (C) Naïve CD4^+ T cells were labeled with CellTrace Violet (CTV) and activated in L-Arg medium or Ctrl medium. On day 10, proliferating CTV^lo T cells were stained with an antibody to CCR7 and analyzed by flow cytometry; n=15 from three donors. (D) Naïve CD4^+ T cells were activated for 5 days in L-Arg or Ctrl medium in the presence of exogenous IL-2, washed extensively and cultured in Ctrl medium in the absence of IL-2. Shown is the percentage of living T cells as determined by Annexin V staining at different time points after IL-2 withdrawal. One representative experiment out of three performed. (E) Same experiment as in (D). Shown is the difference of living activated CD4^+ and CD8^+ T cells 5 days after withdrawal of IL-2; n=46, from sixteen donors (CD4^+ T cells); n=13, from four donors (CD8^+ T cells). […] (K) Effect of norNOHA and BEC on proliferation of CTV-labeled naïve T cells measured 72 h after activation. *p<0.05, **p<0.01, ***p<0.001, ****p<0.0001 (Student's t-test).

Question: Which onset of proliferation (human naïve CD4+ T cells [1]; 3 mM in medium) does the source give for `N=C(N)NCCC[C@H](N)C(=O)O` [L-arginine] here?
Answer: slightly delayed onset

Question: What about the “doubling rates once proliferation started” value (human naïve CD4+ T cells [1]; L-arginine-supplemented medium) of the same compound?
Answer: comparable to controls

Question: What about the “survival of activated CD8+ T cells in the absence of exogenous cytokines” value (activated CD8+ T cells) of the same compound?
Answer: significantly increased

Question: What about the nitric oxide (human naïve CD4+ T cells [2]) of the same compound?
Answer: did not increase

Question: And the “fraction of proliferating CCR7+ T cells” value (human naïve CD4+ T cells [3])?
Answer: higher fraction
